The values that follow come from US9868728B2, “Quinazoline derivatives, compositions, and uses related thereto” (Emory University, priority 2010, dated 2018).

One assay deals with T1, NOX2 (Homo sapiens, UniProt P04839).
T1 construct: isolated plasma membranes from human neutrophils as a source for Nox2-p22phox; from tissue; host or cells: Plasma membranes of human neutrophils (Nox2-p22phox); cytosolic factors recombinant from E. coli
T1 sequence (P04839 2-570 limits assumed): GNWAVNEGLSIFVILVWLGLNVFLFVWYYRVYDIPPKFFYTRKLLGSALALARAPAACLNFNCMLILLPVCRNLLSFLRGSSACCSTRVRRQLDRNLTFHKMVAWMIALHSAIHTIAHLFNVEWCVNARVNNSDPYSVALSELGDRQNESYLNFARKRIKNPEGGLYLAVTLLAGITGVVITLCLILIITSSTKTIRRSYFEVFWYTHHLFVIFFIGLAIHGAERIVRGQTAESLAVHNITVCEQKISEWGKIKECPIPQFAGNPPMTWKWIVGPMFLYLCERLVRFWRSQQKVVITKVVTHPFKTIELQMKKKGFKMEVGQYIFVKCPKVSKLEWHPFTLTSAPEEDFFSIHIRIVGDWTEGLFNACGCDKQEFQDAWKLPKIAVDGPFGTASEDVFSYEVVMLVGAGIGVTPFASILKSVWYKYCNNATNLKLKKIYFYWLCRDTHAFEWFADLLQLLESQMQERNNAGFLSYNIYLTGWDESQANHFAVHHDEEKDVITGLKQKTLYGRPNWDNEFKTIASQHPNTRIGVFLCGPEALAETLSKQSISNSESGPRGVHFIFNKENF
T1 sequence (P13498 2-195 partner limits assumed): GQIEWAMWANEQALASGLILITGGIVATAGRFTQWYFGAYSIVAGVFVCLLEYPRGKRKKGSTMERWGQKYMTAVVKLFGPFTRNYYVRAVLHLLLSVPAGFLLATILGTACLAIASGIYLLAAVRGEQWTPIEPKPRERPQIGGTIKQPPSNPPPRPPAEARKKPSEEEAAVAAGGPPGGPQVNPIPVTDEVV
Briefly: Nox2 cell-free assay (LO12 luminescence). The format is biochemical. The settings on record: Nox2 cell-free system; for IC50: read-out: NOX2 IC50 (concentration giving half-maximal inhibition); for Emax: value in parentheses, read-out: % inhibition (maximum inhibition achieved at a very high concentration of the compound). As for the experimental part:
The following compounds were tested according to the procedures provided in the experimental section. Assays were carried out using the Nox2 cell-free system. The IC50 value is the concentration giving half-maximal inhibition, while the “% inhibition” shown in parentheses is the maximum inhibition achieved at a very high concentration of the compound. 100% refers to complete inhibition within experimental error of the assay.
In certain assays a Cell-Free recombinant NOX-2 system (consisting of isolated plasma membranes from human neutrophils as a source for Nox2-p22phox, supplemented with recombinant p47phox, p67phox and Rac1Q61L (activated Rac), expressed in and isolated from of E. coli. LO12 luminescence was used as a readout to monitor enzymatic activity.
Plasma membranes were prepared from human neutrophils, which express large amounts of Nox2 and stored at −80 C until use. Membranes are mixed with recombinant, purified cytosolic regulatory proteins (p67Np47 chimera, and constitutively active Rac1 mutant Q61) and FAD, along with varying concentrations of compound, and LO12, which luminesces when it reacts with ROSvi. The reaction is started by addition of NADPH and SDS (an artificial stimulus for Nox2). See Curnutte et al., (1987) J. Biol. Chem. 262: 6450-6452.

For the next assay, the system named is human neutrophils. The assay is described as follows: ROS production in human neutrophils. The conditions noted are these: Neutrophil, which express the Nox2 system, read-out: IC50 of inhibition of ROS production. The format is cell-based. From the text: The Nox2 inhibition activity of two compounds is shown in FIG. 1, along with data from the two assay controls.

A further assay has as its target T2, Nox4 DH (Homo sapiens, UniProt Q9NPH5).
T2 sequence (Q9NPH5 304-578 limits assumed): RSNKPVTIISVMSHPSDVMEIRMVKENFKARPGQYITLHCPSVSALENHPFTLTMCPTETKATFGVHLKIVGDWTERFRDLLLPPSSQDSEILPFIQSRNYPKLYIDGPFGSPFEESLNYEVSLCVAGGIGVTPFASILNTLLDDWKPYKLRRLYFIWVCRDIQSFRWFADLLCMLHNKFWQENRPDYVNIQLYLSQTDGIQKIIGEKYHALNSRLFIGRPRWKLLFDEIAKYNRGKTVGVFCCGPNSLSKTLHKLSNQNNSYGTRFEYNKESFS
Briefly: Nox4 DH inhibition kinetics with NADPH. The format is biochemical. The conditions noted are these: versus substrate NADPH; major effect on apparent Km, minor effect on Vmax.

Consider `CN(C)CCCCn1c(SCC(=O)Nc2nc(-c3ccc(Br)cc3)cs2)nc2ccccc2c1=O` [AS158b], for which, on NOX2, the IC50 was determined as 2000 nM and the Emax is 100%. The IC50 in the assay with human neutrophils stood at 1500 nM. For the compound `CN(C)CCCn1c(=S)[nH]c2ccc(Cl)cc2c1=O.Cl` [TG6-44], at NOX2, the IC50 was 1000 nM and the Emax is 100%. In the assay with human neutrophils, the IC50 was determined as 2000 nM. Also, on Nox4 DH, the “mode of inhibition of Nox4 DH” value is “competitive inhibitor”. In the case of `CSc1nc2ccccc2c(=O)n1CCC[N+](C)(C)C` [TG6-67], on NOX2, the IC50 turned out to be 1500 nM and the Emax was 95%.

Take `CN(C)CCCn1c(SC(=O)N2CCN(C)CC2)nc2ccccc2c1=O` [TG6-71]: the “NOX2 IC50 (concentration giving half-maximal inhibition)” value at NOX2 is on record as “Not active”. Consider `CC(Sc1nc2ccccc2c(=O)n1CCCN(C)C)C(=O)Nc1nc(-c2cccc(Br)c2)cs1` (centres unmarked) [TG6-73], for which, at NOX2, the IC50 is > 20000 nM and the Emax worked out at 50%.

With `CN(C)CCCn1c(OCC(=O)N2CCCCC2)nc2ccccc2c1=O` [TG6-74], the IC50 on NOX2 was > 20000 nM. As for `CN(C)CCCn1c(OCC(=O)N2CCOCC2)nc2ccccc2c1=O` [TG6-76], the IC50 at NOX2 is > 20000 nM.

As for `CN(C)CCCn1c(=S)[nH]c2ccc(F)cc2c1=O` [TG6-79], at NOX2, the IC50 was 1500 nM and the Emax was found to be 60%. With `O=C(CSc1nc2ccccc2c(=O)n1CCN1CCCCC1)Nc1nc(-c2cccc(Br)c2)cs1` [TG6-81], at NOX2, the IC50 was determined as 1500 nM and the Emax stood at 70%. With `O=C(CSc1nc2ccccc2c(=O)n1CCCN1CCOCC1)Nc1nc(-c2cccc(Br)c2)cs1` [TG6-82], the “NOX2 IC50 (concentration giving half-maximal inhibition)” value at NOX2 was “Not active”. With `CCSc1nc2ccccc2c(=O)n1CCCN1CCOCC1` [TG6-99-1], on NOX2, the “NOX2 IC50 (concentration giving half-maximal inhibition)” value is on record as “Not active”. For the compound `CCSC1Nc2ccccc2C(=O)N1CCC[N+]1(CC)CCOCC1` (centres unmarked) [TG6-99-2], on NOX2, the IC50 came out at 1500 nM and the Emax worked out at 99%.

Turning to `N#CCCCCSc1nc2ccccc2c(=O)n1CCN1CCCCC1` [TG6-101], the “NOX2 IC50 (concentration giving half-maximal inhibition)” value on NOX2 is on record as “Not active”. As for `CSc1nc2ccccc2c(=O)n1CCC[N+]1(C)CCOCC1` [TG6-103-1], at NOX2, the IC50 came to 1500 nM and the Emax is 100%. For `CSc1nc2ccc(F)cc2c(=O)n1CCC[N+](C)(C)C` [TG6-103-2], at NOX2, the IC50 was determined as 1000 nM and the Emax is 100%.

Take `O=c1c2cc(Cl)ccc2[nH]c(=S)n1CCN1CCNCC1` [TG6-170]: the IC50 on NOX2 was found to be 2000 nM. For `O=c1c2cc(Cl)ccc2[nH]c(=S)n1CCCN1CCCCC1` [TG6-172], at NOX2, the IC50 is 1100 nM. As to `O=C(c1ccc(F)cc1)N1CCN(CCn2c(=S)[nH]c3ccc(Cl)cc3c2=O)CC1` [TG6-173], on NOX2, the IC50 was 2000 nM. With `O=c1c2cc(Cl)ccc2[nH]c(=S)n1CCCN1CCCCC1` [TG6-243], the IC50 on NOX2 is 600 nM. Consider `CN(C)CCCn1c(=S)[nH]c2ccc(F)cc2c1=O` [TG6-248], for which the IC50 at NOX2 was found to be 600 nM.

Turning to `O=c1c2ccccc2[nH]c(=S)n1CCCN1CCOCC1` [TG6-249], on NOX2, the IC50 was determined as 1000 nM. Same read-out and setting: for `CN(C)CCCn1c(=S)[nH]c2cc(F)c(F)cc2c1=O` [TG6-250] the value was 400 nM; for `CCn1c(=S)[nH]c2ccc(F)cc2c1=O` [TG6-269-1], 700 nM. With `CC(C)n1c(=S)[nH]c2cc3c(cc2c1=O)OCCO3` [TG6-272], the IC50 at NOX2 is 700 nM. On the same count and under the same terms, the same measure for `CCCn1c(=S)[nH]c2ccc(Cl)cc2c1=O` [TG6-280]: 8000 nM; for `CC(C)n1c(=S)[nH]c2cc(F)c(F)cc2c1=O` [TG6-284-2]: 700 nM; for `CN(C)c1cccc(-n2c(=S)[nH]c3ccc(Cl)cc3c2=O)c1` [TG6-285]: 1300 nM. With `CN(C)CCCn1c(=S)[nH]c2cc3c(cc2c1=O)OCCO3` [TG6-290-1], the IC50 on NOX2 is 800 nM. The same measure, in the same setting: for `COc1cc2[nH]c(=S)n(C#N)c(=O)c2cc1OC` [TG6-295-2] the value was 200 nM; for `COc1ccc(N2CCN(CCn3c(=S)[nH]c4ccc(Cl)cc4c3=O)CC2)cc1` [TG7-20], 300 nM; for `COc1ccc(N(C)CCCn2c(=S)[nH]c3ccc(Cl)cc3c2=O)cc1` [TG7-25], 200 nM.

As to `COc1ccc(N2CCN(CCn3c(=S)[nH]c4cc(OC)c(OC)cc4c3=O)CC2)cc1` [TG7-29], the IC50 at NOX2 came out at 700 nM.
